Experimental data: patent US10647718B2, “Compounds and use thereof in the expansion of hematopoietic stem cells and/or hematopoietic progenitor cells” (UNIVERSITÉ DE MONTRÉAL, priority 2014, dated 2020)
Read-outs that look alike come from different tables or passages of the source.

Test system: CD34+CD45RA− cell
Assay: Hematopoietic stem cell expansion assay (CD34+CD45RA− cell count versus DMSO vehicle cultures)
Format: cell-based
Details: Homo sapiens, concentration that results in a 50% increase in CD34+CD45RA− cell count compared to vehicle cultures (DMSO), read-out: Biological data EC50
Procedure: As used herein, the term “EC50” is intended to mean the concentration that results in a 50% increase in CD34+CD45RA− cell count compared to vehicle cultures (DMSO).
Screening Assay: screening assays were conducted as described in the inventors' previous patent application, WO 2013/110198.
The following biological assays were used to assess the effect of the compounds of the invention on hematopoietic stem cell expansion The results are illustrated in FIGS. 1 to 6. Culture medium: The culture medium used consisted of serum-free medium supplemented with the following recombinant cytokines: interleukin-6, thrombopoietin, Flt-3 ligand, and stem cell factor, each at a final concentration of 100 ng/ml, in the presence of vehicle (DMSO), positive control (SR1), or compound of the invention or a combination of compounds. Cell Culture: CD34+ cell purity of initial harvests was higher than 90%, as determined by flow cytometry. The CD34+ CD45RA− subpopulation reached purity levels higher than 70%. Cells were plated at 40,000 cells/ml and incubated for 7 to 12-days at 37° C. in 5% CO2. For long term cultures, 200,000 CD34+cells/ml from mobilized PB were plated with serum free media supplemented with interleukin-6, thrombopoietin, Flt3 ligand, and stem cell factor, each at a final concentration of 100 ng/ml, in the presence of vehicle (DMSO), positive control, or a compound of the invention at 500 nM.

[1] = Table 1′, pyrido[4,3-b]indole series
[2] = Table 1, pyridopyrrolopyrimidine series

With `COC(=O)c1ccc2c(c1)[nH]c1ccnc(NCCCN3CCCCC3)c12` [1′, methyl 1-((3-(piperidin-1-yl)propyl)amino)-5H-pyrido[4,3-b]indole-7-carboxylate] the EC50 [1] was over 1000 nM.
With `COC(=O)c1ccc2c(c1)[nH]c1cc(Cc3ccccc3)nc(NCCCN3CCCCC3)c12` [2′, methyl 3-benzyl-1-((3-(piperidin-1-yl)propyl)amino)-5H-pyrido[4,3-b]indole-7-carboxylate] the EC50 [1] was under 100 nM.
`COC(=O)c1ccc2c(c1)[nH]c1cc(Cc3ccccc3)nc(NCCN3CCCC3)c12` [3′, methyl 3-benzyl-1-((2-(pyrrolidin-1-yl)ethyl)amino)-5H-pyrido[4,3-b]indole-7-carboxylate] gave an EC50 [1] of under 100 nM.
Compound `COC(=O)c1ccc2c(c1)[nH]c1cc(Cc3ccccc3)nc(N(C)CCCN(C)C)c12` [4′, methyl 3-benzyl-1-((3-(dimethylamino)propyl)(methyl)amino)-5H-pyrido[4,3-b]indole-7-carboxylate] has an EC50 [1] of under 100 nM.
`Cn1nnc(-c2ccc3c(c2)[nH]c2cc(Cc4ccccc4)nc(NCCCN4CCCCC4)c23)n1` [5′, 3-benzyl-7-(2-methyl-2H-tetrazol-5-yl)-N-(3-(piperidin-1-yl)propyl)-5H-pyrido[4,3-b]indol-1-amine] gave an EC50 [1] of 100 to 250 nM.
Work on `COC(=O)c1ccc2c(c1)[nH]c1cc(Cc3cccc(OC)c3)nc(NCCCCN3CCCC3)c12` [6′, methyl 3-(3-methoxybenzyl)-1-((4-(pyrrolidin-1-yl)butyl)amino)-5H-pyrido[4,3-b]indole-7-carboxylate] yielded an EC50 [1] of under 100 nM.
`COC(=O)c1ccc2c(c1)[nH]c1cc(Cc3cccc(O)c3)nc(NCCCCN3CCCC3)c12` [7′, methyl 3-(3-hydroxybenzyl)-1-((4-(pyrrolidin-1-yl)butyl)amino)-5H-pyrido[4,3-b]indole-7-carboxylate] gave an EC50 [1] of under 100 nM.
Compound `COC(=O)c1ccc2c(c1)[nH]c1cc(Cc3ccsc3)nc(NCCN(C)CCNC(=O)OC(C)(C)C)c12` [8′, methyl 1-((2-((2-((tert-butoxycarbonyl)amino)ethyl)(methyl)amino)ethyl)amino)-3-(thiophen-3-ylmethyl)-5H-pyrido[4,3-b]indole-7-carboxylate] has an EC50 [1] of over 1000 nM.
`COC(=O)c1ccc2c(c1)[nH]c1cc(Cc3cccnc3)nc(NCCCN3CCOCC3)c12` [9′, methyl 1-((3-morpholinopropyl)amino)-3-(pyridin-3-ylmethyl)-5H-pyrido[4,3-b]indole-7-carboxylate] was tested, and the EC50 [1] was 500 to 1000 nM.
Compound `COC(=O)c1ccc2c(c1)[nH]c1cc(Cc3ccsc3)nc(NCCCN3CCCCC3)c12` [10′, methyl 1-((3-(piperidin-1-yl)propyl)amino)-3-(thiophen-3-ylmethyl)-5H-pyrido[4,3-b]indole-7-carboxylate] has an EC50 [1] of 100 to 250 nM.
In the case of `COC(=O)c1ccc2c(c1)[nH]c1cc(Cc3cccnc3)nc(N3CCC(N4CCCC4)CC3)c12` [11′, methyl 3-(pyridin-3-ylmethyl)-1-(4-(pyrrolidin-1-yl)piperidin-1-yl)-5H-pyrido[4,3-b]indole-7-carboxylate], the EC50 [1] is reported as over 1000 nM.
In the case of `CNCCCN(C)c1nc(Cc2cccnc2)cc2[nH]c3cc(C(=O)OC)ccc3c12` [12′, methyl 1-(methyl(3-(methylamino)propyl)amino)-3-(pyridin-3-ylmethyl)-5H-pyrido[4,3-b]indole-7-carboxylate], the EC50 [1] is reported as over 1000 nM.
`COC(=O)c1ccc2c(c1)[nH]c1cc(Cc3ccsc3)nc(N[C@H]3CC[C@H](N)CC3)c12` [13′, methyl 1-(((1r,4r)-4-aminocyclohexyl)amino)-3-(thiophen-3-ylmethyl)-5H-pyrido[4,3-b]indole-7-carboxylate] was tested, and the EC50 [1] was 100 to 250 nM.
With `COC(=O)c1ccc2c(c1)[nH]c1cc(Cc3ccsc3)nc(NCCN(C)CCN)c12` [14′, methyl 1-((2-((2-aminoethyl)(methyl)amino)ethyl)amino)-3-(thiophen-3-ylmethyl)-5H-pyrido[4,3-b]indole-7-carboxylate] the EC50 [1] was 250 to 500 nM.
`COC(=O)c1ccc2c(c1)[nH]c1cc(Cc3ccsc3)nc(NCCC[N+]3(CC(N)=O)CCCCC3)c12` [15′, 1-(2-amino-2-oxoethyl)-1-(3-((7-(methoxycarbonyl)-3-(thiophen-3-ylmethyl)-5H-pyrido[4,3-b]indol-1-yl)amino)propyl)piperidin-1-ium iodide] gave an EC50 [1] of under 100 nM.
In the case of `COC(=O)c1cnc2c(c1)[nH]c1nc(Cc3ccccc3)nc(NCCCN3CCCCC3)c12` [Compound 1, methyl 2-benzyl-4-((3-(piperidin-1-yl)propyl)amino)-9H-pyrido[2′,3′:4,5]pyrrolo[2,3-d]pyrimidine-7-carboxylate], the EC50 [2] is reported as 250 to 500 nM.
For `COC(=O)c1cnc2c(c1)[nH]c1nc(Cc3ccsc3)nc(NCCCN3CCCCC3)c12` [Compound 2, methyl 4-((3-(piperidin-1-yl)propyl)amino)-2-(thiophen-3-ylmethyl)-9H-pyrido[2′,3′:4,5]pyrrolo[2,3-d]pyrimidine-7-carboxylate], the EC50 [2] was 250 to 500 nM.
Work on `COC(=O)c1cnc2c(c1)[nH]c1nc(Cc3ccsc3)nc(SCCCN3CCCCC3)c12` [Compound 3, methyl 4-((3-(piperidin-1-yl)propyl)thio)-2-(thiophen-3-ylmethyl)-9H-pyrido[2′,3′:4,5]pyrrolo[2,3-d]pyrimidine-7-carboxylate] yielded an EC50 [2] of 500 to 1000 nM.
`COC(=O)c1cnc2c(c1)[nH]c1nc(Cc3cccc(OC)c3)nc(NCCCN3CCCCC3C)c12` (stereo not shown) [Compound 4, methyl 2-(3-methoxybenzyl)-4-((3-(2-methylpiperidin-1-yl)propyl)amino)-9H-pyrido[2′,3′:4,5]pyrrolo[2,3-d]pyrimidine-7-carboxylate] gave an EC50 [2] of 250 to 500 nM.
`CCN(CC)CCNc1nc(Cc2cccc(OC)c2)nc2[nH]c3cc(C(=O)OC)cnc3c12` [Compound 5, methyl 4-((2-(diethylamino)ethyl)amino)-2-(3-methoxybenzyl)-9H-pyrido[2′,3′:4,5]pyrrolo[2,3-d]pyrimidine-7-carboxylate] showed an EC50 [2] of 500 to 1000 nM.
`COC(=O)c1cnc2c(c1)[nH]c1nc(Cc3ccccc3)nc(N(C)CCCN3CCCCC3)c12` [Compound 6, methyl 2-benzyl-4-(methyl(3-(piperidin-1-yl)propyl)amino)-9H-pyrido[2′,3′:4,5]pyrrolo[2,3-d]pyrimidine-7-carboxylate] gave an EC50 [2] of under 100 nM.
Work on `COC(=O)c1cnc2c(c1)[nH]c1nc(Cc3ccccc3C)nc(NCCCN3CCCCC3)c12` [Compound 7, methyl 2-(2-methylbenzyl)-4-((3-(piperidin-1-yl)propyl)amino)-9H-pyrido[2′,3′:4,5]pyrrolo[2,3-d]pyrimidine-7-carboxylate] yielded an EC50 [2] of 250 to 500 nM.
For `COC(=O)c1cnc2c(c1)[nH]c1nc(Cc3ccccc3C)nc(NCCCN3CCCC3)c12` [Compound 8, methyl 2-(2-methylbenzyl)-4-((3-(pyrrolidin-1-yl)propyl)amino)-9H-pyrido[2′,3′:4,5]pyrrolo[2,3-d]pyrimidine-7-carboxylate], the EC50 [2] was 250 to 500 nM.
Compound `CNCCCNc1nc(Cc2ccccc2C)nc2[nH]c3cc(C(=O)OC)cnc3c12` [Compound 9, methyl 4-((3-(methylamino)propyl)amino)-2-(2-methylbenzyl)-9H-pyrido[2′,3′:4,5]pyrrolo[2,3-d]pyrimidine-7-carboxylate] has an EC50 [2] of 500 to 1000 nM.
`Cn1nnc(-c2cnc3c(c2)[nH]c2nc(Cc4ccccc4)nc(N[C@H]4CC[C@H](N)CC4)c23)n1` [Compound 10, (1R,4R)—N^1-(2-benzyl-7-(2-methyl-2H-tetrazol-5-yl)-9H-pyrido[2′,3′:4,5]pyrrolo[2,3-d]pyrimidin-4-yl)cyclohexane-1,4-diamine] gave an EC50 [2] of 250 to 500 nM.
`COC(=O)c1cnc2c(c1)[nH]c1nc(Cc3cccc(F)c3)nc(NCCCN3CCCCC3)c12` [Compound 11, methyl 2-(3-fluorobenzyl)-4-((3-(piperidin-1-yl)propyl)amino)-9H-pyrido[2′,3′:4,5]pyrrolo[2,3-d]pyrimidine-7-carboxylate] showed an EC50 [2] of over 1000 nM.
In the case of `COC(=O)c1cnc2c(c1)[nH]c1nc(Cc3cccc(F)c3)nc(NCCCN(C)CCCN)c12` [Compound 12, methyl 4-((3-((3-aminopropyl)(methyl)amino)propyl)amino)-2-(3-fluorobenzyl)-9H-pyrido[2′,3′:4,5]pyrrolo[2,3-d]pyrimidine-7-carboxylate], the EC50 [2] is reported as 250 to 500 nM.
`CNCCCNc1nc(Cc2cccc(F)c2)nc2[nH]c3cc(C(=O)OC)cnc3c12` [Compound 13] was tested, and the EC50 [2] was over 1000 nM.
`COC(=O)c1cnc2c(c1)[nH]c1nc(Cc3ccccc3)nc(NCC(C)CN(C)C)c12` (stereo not shown) [Compound 14, methyl 2-benzyl-4-((3-(dimethylamino)-2-methylpropyl)amino)-9H-pyrido[2′,3′:4,5]pyrrolo[2,3-d]pyrimidine-7-carboxylate] showed an EC50 [2] of 500 to 1000 nM.
With `COC(=O)c1cnc2c(c1)[nH]c1nc(Cc3ccccc3)nc(N3CCC(N(C)C)CC3)c12` [Compound 15, methyl 2-benzyl-4-(4-(dimethylamino)piperidin-1-yl)-9H-pyrido[2′,3′:4,5]pyrrolo[2,3-d]pyrimidine-7-carboxylate] the EC50 [2] was 100 to 250 nM.
Compound `CCN(CC)CCN(CC)c1nc(Cc2ccccc2)nc2[nH]c3cc(C(=O)OC)cnc3c12` [Compound 16, methyl 2-benzyl-4-((2-(diethylamino)ethyl)(ethyl)amino)-9H-pyrido[2′,3′:4,5]pyrrolo[2,3-d]pyrimidine-7-carboxylate] has an EC50 [2] of 250 to 500 nM.
